{
  "source": "paper PMC10064984",
  "about": "“Anti-cyclooxygenase, anti-glycation, and anti-skin aging effect of Dendrobium officinale flowers’ aqueous extract and its phytochemical validation in aging” (Frontiers in Immunology, 2023)",
  "format_in_all_cases": "biochemical",
  "key": {"[1]": {"target": "T1, COX-2 (Homo sapiens, UniProt P35354)", "T1 construct": "purchased Beyotime S0168", "T1 sequence (P35354 18-604)": "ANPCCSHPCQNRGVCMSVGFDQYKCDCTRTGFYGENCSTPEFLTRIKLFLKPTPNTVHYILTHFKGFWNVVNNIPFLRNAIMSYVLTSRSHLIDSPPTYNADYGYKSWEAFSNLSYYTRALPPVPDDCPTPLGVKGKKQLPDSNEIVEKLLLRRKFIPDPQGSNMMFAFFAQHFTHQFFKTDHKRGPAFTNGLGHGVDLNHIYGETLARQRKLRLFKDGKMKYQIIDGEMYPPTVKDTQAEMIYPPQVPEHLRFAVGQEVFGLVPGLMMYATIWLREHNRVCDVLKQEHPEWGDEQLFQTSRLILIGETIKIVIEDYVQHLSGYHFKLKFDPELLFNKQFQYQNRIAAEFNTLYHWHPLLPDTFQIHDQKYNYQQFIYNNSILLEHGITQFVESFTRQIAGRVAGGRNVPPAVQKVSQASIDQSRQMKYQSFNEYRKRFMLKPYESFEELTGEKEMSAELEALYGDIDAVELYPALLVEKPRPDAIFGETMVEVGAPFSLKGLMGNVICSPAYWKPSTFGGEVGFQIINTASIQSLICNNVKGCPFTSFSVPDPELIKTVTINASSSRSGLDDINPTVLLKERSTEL", "assay": "Anti-COX-2 assay (COX-2 Inhibitor Screening Kit)"}, "[2]": {"assay": "FRAP total antioxidant capacity;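 for all read-outs here: colourimetric FRAP kit assay read as absorbance in 96-well plates, values as mM FeSO4 via standard curve, EC1 being sample concentration matching 1.0 mmol/L FeSO4, Trolox positive control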", "settings": "lower part of sheet (compound series)"}, "[3]": {"assay": "ABTS·+ decolourisation capacity", "settings": "for ABTS scavenging rate: 0.5mM series, replicate wells, listed as T17; for IC50: mean ± SD, n = 3", "method": "Fast colourimetric methods were slightly modified for the in vitro assessment of DPPH· scavenging ([19]), ABTS·+ decolourisation capacity ([20]), and total antioxidant capacity of FRAP ([21]). The stock solutions of derivatisation reagents were diluted as follows before measurement: DPPH was diluted with absolute ethanol until the absorbance was 0.8 ± 0.05 at λ = 517 nm. ABTS working solution was prepared with phosphate buffer (0.2 M, pH 7.4) to display absorbance of 0.8 ± 0.05 at λ = 729 nm, based on a previous study ([22]). The FRAP solution was prepared according to the instructions of the FRAP kit. Absorbances were measured using an automatic microplate reader (Molecular Group Ltd., USA), and all analyses were performed using 96-well plates. All measurements were performed in triplicate, and Trolox was used as a positive control.\nFor ABTS·+ decolourisation capacity, 100 μl of ABTS working solution was mixed with 200 μl of sample solution, and the absorbance was recorded after 10 min at 729 nm. Phosphate buffer (0.2 M, pH 7.4) was used as a negative control.\nDPPH· and ABTS·+ radical scavenging activities of the tested sample were both calculated using the following formula:\n% inhibition = (A control − A sample)/A control × 100\nWhere A control and A sample represent the absorbance of the control and test samples, respectively. The IC50 was calculated graphically from the dose-inhibition curves."}, "[4]": {"assay": "Fluorescent AGEs formation in a BSA-fructose/glucose system", "settings": "for IC50: mean ± SD, n = 3, read-out: BSA-glycation IC50; for inhibition of fluorescent AGEs formation (BSA-抗糖化), single replicate: individual replicate; for inhibition of fluorescent AGEs formation (BSA-抗糖化), 平均 (mean): mean of 3 replicates", "method": "Glycated protein was prepared in vitro by incubating BSA in the presence of D-glucose (GLC) and D-fructose (FRC). The DOF extract and specific standards were dissolved in DMSO:water (1:4). […] The assay was performed in triplicate, and AG was used as a positive control. The percentage inhibition of fluorescent AGE formation was calculated using the following equation: […] Where IF sample is fluorescence intensity in the presence of samples and BSA, IF sample control is fluorescence intensity in the presence of samples without BSA, IF control is fluorescence intensity without samples, and IF blank control is fluorescence intensity without samples and BSA."}, "[5]": {"assay": "DPPH· scavenging", "settings": "mean ± SD, n = 3"}},
  "note": "Several values for one entry are separate records, joined by “and”; a condition that tells them apart may be missing. Equal entries are not always repeated. Where two headings read alike, the source gives them in different places.",
  "data": [
    {"compound": "O=c1cc(-c2ccc(O)c(O)c2)oc2cc(O)c(C3OC(CO)C(O)C(O)C3O)c(O)c12", "note": "[compound 18, Luteolin-6-C-β-D-glucoside]", "values": [
      {"measurement": "COX-2 inhibition (in words)", "setting": "[1]", "result": "great COX-2 inhibition"},
      {"measurement": "inhibition at 3.125 µM", "setting": "[1]; 3.125 μM, single replicates", "result": 16.9, "unit": "%"},
      {"measurement": "COX-2 inhibition", "setting": "[1]; 3.125 μM, single replicates, listed as T17, 3.125 µM", "result": "26.59% and 29.93%"},
      {"measurement": "COX-2 inhibition", "setting": "[1]; 6.25 μM, single replicates, listed as T17, 6.25 µM", "result": "36.73% and 36.77% and 59.48%"},
      {"measurement": "inhibition at 12.5 µM", "setting": "[1]; 12.5 μM, single replicates", "result": 65.1, "unit": "%"},
      {"measurement": "COX-2 inhibition", "setting": "[1]; 12.5 μM, single replicates, listed as T17, 12.5 µM", "result": "69.47% and 74.84%"},
      {"measurement": "inhibition at 25 µM", "setting": "[1]; 25 μM, single replicates", "result": 74.8, "unit": "%"},
      {"measurement": "COX-2 inhibition", "setting": "[1]; 25 μM, single replicates, listed as T17, 25 µM", "result": "75.14% and 79.85%"},
      {"measurement": "inhibition at 50 µM", "setting": "[1]; 50 μM, single replicates", "result": 78.4, "unit": "%"},
      {"measurement": "COX-2 inhibition", "setting": "[1]; 50 μM, single replicates, listed as T17, 50 µM", "result": "79.38% and 83.25%"},
      {"measurement": "inhibition at 100 µM", "setting": "[1]; 100 μM, single replicates", "result": 84.8, "unit": "%"},
      {"measurement": "COX-2 inhibition", "setting": "[1]; 100 μM, single replicates, listed as T17, 100 µM", "result": "81.46% and 83.62%"},
      {"measurement": "inhibition at 200 µM", "setting": "[1]; 200 μM, single replicates", "result": 90.6, "unit": "%"},
      {"measurement": "COX-2 inhibition", "setting": "[1]; 200 μM, single replicates, listed as T17, 200 µM", "result": "89.90% and 90.15%"},
      {"measurement": "IC50", "setting": "[1]; mean ± SD, n = 3, nd, not detected, read-out: COX-2 IC50", "result": "7.9 ± 2.4", "unit": "µM"},
      {"measurement": "IC50", "setting": "[1]; supplement sheet COX, read-out: COX-2 IC50, single replicate", "result": "10 µM and 8.56 µM and 5.24 µM"},
      {"measurement": "FRAP EC1", "setting": "[2]", "result": "506.6 ± 78.3", "unit": "µM"},
      {"measurement": "ABTS scavenging rate", "setting": "[3]; concentration 7.8125 (unit not given)", "result": "55.37% and 55.07% and 56.44%"},
      {"measurement": "ABTS scavenging rate", "setting": "[3]; concentration 15.625 (unit not given)", "result": "79.33% and 79.42% (2×)"},
      {"measurement": "ABTS scavenging rate", "setting": "[3]; concentration 31.25 (unit not given)", "result": "99.48% (2×) and 99.43%"},
      {"measurement": "ABTS scavenging rate", "setting": "[3]; concentration 62.5 (unit not given)", "result": "99.27% and 99.11% and 99.08%"},
      {"measurement": "ABTS scavenging rate", "setting": "[3]; concentration 125 (unit not given)", "result": "99.06% and 98.78% and 98.90%"},
      {"measurement": "ABTS scavenging rate", "setting": "[3]; concentration 250 (unit not given)", "result": "98.95% and 99.14% and 99.11%"},
      {"measurement": "ABTS scavenging rate", "setting": "[3]; concentration 500 (unit not given)", "result": "99.30% and 99.22% and 99.17%"},
      {"measurement": "IC50", "setting": "[3]", "result": "7.1 ± 0.1", "unit": "µM"},
      {"measurement": "IC50", "setting": "[4]", "result": "317 ± 15.6", "unit": "µM"},
      {"measurement": "IC50", "setting": "[5]", "result": "102 ± 6.2", "unit": "µM"}
    ]},
    {"compound": "O=c1cc(-c2ccc(O)cc2)oc2c(C3OCC(O)C(O)C3O)c(O)c(C3OCC(O)C(O)C3O)c(O)c12", "note": "[compound 26, Apigenin-6-C-α-L-arabinoside-8-C-β-D-xyloside]", "values": [
      {"measurement": "COX-2 inhibition (in words)", "setting": "[1]", "result": "no inhibitory effects"},
      {"measurement": "FRAP EC1", "setting": "[2]", "result": ">5000", "unit": "µM"},
      {"measurement": "IC50", "setting": "[3]", "result": "80.36 ± 0.77", "unit": "µM"},
      {"measurement": "inhibition of fluorescent AGEs formation (BSA-抗糖化), single replicate", "setting": "[4]; 15.625 µM, listed as T10, 15.625 µM", "result": "-0.15% and 0.19% and 0.09%"},
      {"measurement": "inhibition of fluorescent AGEs formation (BSA-抗糖化), 平均 (mean)", "setting": "[4]; 15.625 µM", "result": 0.045, "unit": "%"},
      {"measurement": "inhibition of fluorescent AGEs formation (BSA-抗糖化), single replicate", "setting": "[4]; 31.25 µM, listed as T10, 31.25 µM", "result": "6.49% and 8.31% and 6.26%"},
      {"measurement": "inhibition of fluorescent AGEs formation (BSA-抗糖化), 平均 (mean)", "setting": "[4]; 31.25 µM", "result": 7.02, "unit": "%"},
      {"measurement": "inhibition of fluorescent AGEs formation (BSA-抗糖化), single replicate", "setting": "[4]; 62.5 µM, listed as T10, 62.5 µM", "result": "15.98% and 16.92% and 15.72%"},
      {"measurement": "inhibition of fluorescent AGEs formation (BSA-抗糖化), 平均 (mean)", "setting": "[4]; 62.5 µM", "result": 16.21, "unit": "%"},
      {"measurement": "inhibition of fluorescent AGEs formation (BSA-抗糖化), single replicate", "setting": "[4]; 125 µM, listed as T10, 125 µM", "result": "27.64% and 28.36% and 29.90%"},
      {"measurement": "inhibition of fluorescent AGEs formation (BSA-抗糖化), 平均 (mean)", "setting": "[4]; 125 µM", "result": 28.63, "unit": "%"},
      {"measurement": "inhibition of fluorescent AGEs formation (BSA-抗糖化), single replicate", "setting": "[4]; 250 µM, listed as T10, 250 µM", "result": "48.76% and 48.06% and 47.15%"},
      {"measurement": "inhibition of fluorescent AGEs formation (BSA-抗糖化), 平均 (mean)", "setting": "[4]; 250 µM", "result": 47.99, "unit": "%"},
      {"measurement": "inhibition of fluorescent AGEs formation (BSA-抗糖化), single replicate", "setting": "[4]; 500 µM, listed as T10, 500 µM", "result": "67.27% and 67.99% and 65.66%"},
      {"measurement": "inhibition of fluorescent AGEs formation (BSA-抗糖化), 平均 (mean)", "setting": "[4]; 500 µM", "result": 66.98, "unit": "%"},
      {"measurement": "inhibition of fluorescent AGEs formation (BSA-抗糖化), single replicate", "setting": "[4]; 1000 µM, listed as T10, 1000 µM", "result": "82.36% and 81.32% and 81.69%"},
      {"measurement": "inhibition of fluorescent AGEs formation (BSA-抗糖化), 平均 (mean)", "setting": "[4]; 1000 µM", "result": 81.79, "unit": "%"},
      {"measurement": "inhibition of fluorescent AGEs formation (BSA-抗糖化), single replicate", "setting": "[4]; 2000 µM, listed as T10, 2000 µM", "result": "90.52% and 90.97% and 89.78%"},
      {"measurement": "inhibition of fluorescent AGEs formation (BSA-抗糖化), 平均 (mean)", "setting": "[4]; 2000 µM", "result": 90.42, "unit": "%"},
      {"measurement": "inhibition of fluorescent AGEs formation (BSA-抗糖化), single replicate", "setting": "[4]; 4000 µM (series head 'T9 4000µM', 2-fold dilutions), listed as T10", "result": "95.10% and 95.64% and 95.09%"},
      {"measurement": "inhibition of fluorescent AGEs formation (BSA-抗糖化), 平均 (mean)", "setting": "[4]; 4000 µM", "result": 95.27, "unit": "%"},
      {"measurement": "IC50", "setting": "[4]", "result": "273 ± 4.7", "unit": "µM"},
      {"measurement": "IC50", "setting": "[5]", "result": "> 5000", "unit": "µM"}
    ]}
  ]
}
